{"source": "ChEMBL document CHEMBL6178017", "about": "“Intercepting the Downstream of the Estrogen Receptor Signaling Pathway: Discovery of a Potent and Efficient SRC-3 PROTAC Degrader for Overcoming Endocrine Resistance Breast Cancer” (J Med Chem, 2025)", "key": {"[1]": {"test_system": "MCF7", "experiment": "Induction of apoptosis in human MCF7 cells assessed as maximal increase in early apoptotic cells at 10 uM incubated for 48 hrs by AnnexinV-FITC/PI staining based flow cytometry", "format": "functional"}, "[2]": {"experiment": "Tmax in Balb/c mouse at 20 mg/kg, po by LC-MS/MS analysis", "format": "ADME, organism-based", "settings": "in vivo"}, "[3]": {"experiment": "Antiproliferative activity against tamoxifen-resistant human LCC2 cells assessed as inhibition of cell growth by CCK8 assay", "format": "functional, cell-based"}, "[4]": {"experiment": "Induction of cell cycle arrest in tamoxifen-resistant human LCC2 cells assessed as accumulation of cells at S phase at 20 uM incubated for 48 hrs by propidium iodide staining based flow cytometry (reference value: 9.72%)", "format": "functional"}, "[5]": {"experiment": "Induction of apoptosis in tamoxifen-resistant human LCC2 cells assessed as early apoptotic cells at 10 uM incubated for 48 hrs by AnnexinV-FITC/PI staining based flow cytometry (reference value: 5.92%)", "format": "functional, Tamoxifen-resistant LCC2 cell"}, "[6]": {"target": "T1, Protein cereblon/Nuclear receptor coactivator 3 (Homo sapiens, UniProt Q9Y6Q9+Q96SW2)", "T1 sequence (Q96SW2 whole entry partner)": "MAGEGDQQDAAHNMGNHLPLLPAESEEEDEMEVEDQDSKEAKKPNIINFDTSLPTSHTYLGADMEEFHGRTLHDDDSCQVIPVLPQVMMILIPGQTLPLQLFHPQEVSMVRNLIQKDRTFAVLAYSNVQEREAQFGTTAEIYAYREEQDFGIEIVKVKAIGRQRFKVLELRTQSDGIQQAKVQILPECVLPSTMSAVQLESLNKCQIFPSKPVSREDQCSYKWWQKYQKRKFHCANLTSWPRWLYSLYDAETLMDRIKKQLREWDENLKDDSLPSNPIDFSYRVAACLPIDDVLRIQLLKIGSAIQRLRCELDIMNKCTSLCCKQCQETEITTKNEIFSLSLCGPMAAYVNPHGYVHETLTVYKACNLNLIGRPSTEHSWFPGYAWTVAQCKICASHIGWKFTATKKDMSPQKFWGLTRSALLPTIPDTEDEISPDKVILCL", "T1 sequence (Q9Y6Q9 2-1424 limits assumed)": "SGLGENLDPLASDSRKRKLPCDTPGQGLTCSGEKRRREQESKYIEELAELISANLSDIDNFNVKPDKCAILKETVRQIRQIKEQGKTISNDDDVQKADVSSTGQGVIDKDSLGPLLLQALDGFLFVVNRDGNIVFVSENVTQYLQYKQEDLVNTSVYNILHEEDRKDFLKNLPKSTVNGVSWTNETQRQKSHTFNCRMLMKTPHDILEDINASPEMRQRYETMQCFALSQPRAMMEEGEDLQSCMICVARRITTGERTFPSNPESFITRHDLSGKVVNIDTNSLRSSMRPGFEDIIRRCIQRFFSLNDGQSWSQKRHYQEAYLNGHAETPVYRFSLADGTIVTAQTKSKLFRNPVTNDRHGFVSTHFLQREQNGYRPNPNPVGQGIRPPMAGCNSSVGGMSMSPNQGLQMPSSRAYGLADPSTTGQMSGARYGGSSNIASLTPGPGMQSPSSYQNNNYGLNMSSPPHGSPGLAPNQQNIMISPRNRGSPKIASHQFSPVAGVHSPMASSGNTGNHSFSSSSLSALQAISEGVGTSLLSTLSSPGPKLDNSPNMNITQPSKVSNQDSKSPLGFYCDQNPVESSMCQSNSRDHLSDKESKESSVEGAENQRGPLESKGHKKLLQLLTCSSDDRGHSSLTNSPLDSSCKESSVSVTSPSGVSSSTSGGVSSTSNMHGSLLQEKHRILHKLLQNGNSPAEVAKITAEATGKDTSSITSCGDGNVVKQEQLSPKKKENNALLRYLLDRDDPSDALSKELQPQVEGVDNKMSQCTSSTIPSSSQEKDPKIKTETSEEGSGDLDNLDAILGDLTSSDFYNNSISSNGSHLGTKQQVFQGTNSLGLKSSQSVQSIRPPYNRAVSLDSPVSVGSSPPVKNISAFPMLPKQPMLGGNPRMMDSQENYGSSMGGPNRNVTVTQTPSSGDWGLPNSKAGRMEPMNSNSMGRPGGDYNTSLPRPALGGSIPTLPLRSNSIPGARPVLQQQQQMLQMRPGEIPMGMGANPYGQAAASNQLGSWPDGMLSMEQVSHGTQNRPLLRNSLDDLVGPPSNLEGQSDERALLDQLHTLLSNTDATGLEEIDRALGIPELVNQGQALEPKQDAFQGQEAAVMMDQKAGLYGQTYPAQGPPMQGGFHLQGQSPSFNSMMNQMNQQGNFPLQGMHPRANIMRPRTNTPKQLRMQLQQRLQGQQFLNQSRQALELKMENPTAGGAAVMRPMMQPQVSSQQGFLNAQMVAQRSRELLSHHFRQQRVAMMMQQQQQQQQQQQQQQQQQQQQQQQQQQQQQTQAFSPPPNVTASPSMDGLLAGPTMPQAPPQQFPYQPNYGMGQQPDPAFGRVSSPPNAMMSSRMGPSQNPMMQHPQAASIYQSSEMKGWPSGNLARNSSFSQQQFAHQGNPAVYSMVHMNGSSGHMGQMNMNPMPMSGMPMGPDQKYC", "experiment": "PROTAC activity at CRBN/SRC-3 in human MCF7 cells harboring ER-alpha Y537S mutant assessed as downregulation of ER-alpha level at 0.01 to 10 uM measured after 36 hrs by immunoblot analysis", "format": "cell-based", "settings": "dose 0.01-10 µM"}, "[7]": {"target": "T1, Protein cereblon/Nuclear receptor coactivator 3", "experiment": "PROTAC activity at CRBN/SRC-3 in human MCF7 cells assessed as induction of SRC-3 degradation incubated for 24 hrs by immunoblot analysis", "format": "cell-based", "settings": "dose 0.1-10 µM"}, "[8]": {"test_system": "LNCaP", "experiment": "Antiproliferative activity against human LNCaP cells assessed as inhibition of cell growth by CCK-8 assay", "format": "functional, cell-based"}, "[9]": {"experiment": "Induction of apoptosis in tamoxifen-resistant human LCC2 cells assessed as viable cells at 5 uM incubated for 48 hrs by AnnexinV-FITC/PI staining based flow cytometry (reference value: 88.09%)", "format": "functional", "settings": "Tamoxifen-resistant LCC2 cell, read-out: Activity"}, "[10]": {"experiment": "AUC (0 to t) in Balb/c mouse at 20 mg/kg, po by LC-MS/MS analysis", "format": "ADME, organism-based", "settings": "in vivo"}, "[11]": {"experiment": "Toxicity against Balb/c mouse xenografted with tamoxifen-resistant human LCC2 cells assessed as effect on liver pathological changes at 3 to 5 uM/Kg, ip administered once every 2 days for 23 days and measured on day 25 by Hematoxylin-Eosin based […] staining analysis", "format": "organism-based", "settings": "in vivo, 600 h, dose 3-5 µM/Kg, time 25 day"}, "[12]": {"test_system": "Tamoxifen-resistant LCC2 cell", "experiment": "Antitumor activity against tamoxifen-resistant human LCC2 cells xenografted in Balb/c mouse assessed as reduction in Ki67 expression in tumor tissues at 5 uM/Kg, ip administered once every 2 days for 23 days and measured on day 25 by Hematoxylin-Eosin staining based immunohistochemical staining analysis", "format": "functional, organism-based", "settings": "time 25.0 day"}, "[13]": {"experiment": "AUC (0 to infinity) in Balb/c mouse at 4 mg/kg, ip by LC-MS/MS analysis", "format": "ADME, organism-based", "settings": "in vivo"}, "[14]": {"target": "T1, Protein cereblon/Nuclear receptor coactivator 3", "experiment": "PROTAC activity at CRBN/SRC-3 in human MCF7 cells harboring ER-alpha D538G mutant assessed as downregulation of ER-alpha level at 0.01 to 10 uM measured after 36 hrs by immunoblot analysis", "format": "cell-based", "settings": "dose 0.01-10 µM"}, "[15]": {"target": "T1, Protein cereblon/Nuclear receptor coactivator 3", "experiment": "PROTAC activity at CRBN/SRC-3 in tamoxifen-resistant human LCC2 cells assessed as degradation of SRC-3 at 10 uM measured after 36 hrs by diaPASEF-based quantitative proteomics analysis relative to control", "settings": "Tamoxifen-resistant LCC2 cell"}, "[16]": {"experiment": "Induction of apoptosis in tamoxifen-resistant human LCC2 cells assessed as early apoptotic cells at 1 uM incubated for 48 hrs by AnnexinV-FITC/PI staining based flow cytometry (reference value: 5.92%)", "format": "functional, Tamoxifen-resistant LCC2 cell"}, "[17]": {"experiment": "Half life in Balb/c mouse at 20 mg/kg, po by LC-MS/MS analysis", "format": "ADME, organism-based", "settings": "in vivo"}, "[18]": {"target": "T1, Protein cereblon/Nuclear receptor coactivator 3", "experiment": "PROTAC activity at CRBN/SRC-3 in human MCF7 cells assessed as induction of SRC-3 degradation at 0.1 uM incubated for 36 hrs by immunoblot analysis", "format": "cell-based"}, "[19]": {"target": "T1, Protein cereblon/Nuclear receptor coactivator 3", "experiment": "PROTAC activity at CRBN/SRC-3 in human MCF7 cells overexpressing EGFR assessed as induction of SRC-3 degradation measured after 36 hrs by immunoblot analysis", "format": "cell-based", "settings": "dose 0.01-10 µM"}, "[20]": {"target": "T1, Protein cereblon/Nuclear receptor coactivator 3", "experiment": "PROTAC activity at CRBN/SRC-3 in tamoxifen-resistant human LCC2 cells assessed as downregulation of ER-alpha mRNA expression at 0.01 to 10 uM incubated for 36 hrs by qRT-PCR analysis", "format": "cell-based", "settings": "Tamoxifen-resistant LCC2 cell, dose 0.01-10 µM"}, "[21]": {"experiment": "Clearance in Balb/c mouse at 2 mg/kg, iv by LC-MS/MS analysis", "format": "ADME, organism-based", "settings": "in vivo"}, "[22]": {"experiment": "Induction of cell cycle arrest in tamoxifen-resistant human LCC2 cells assessed as accumulation of cells at G1 phase at 5 uM incubated for 48 hrs by propidium iodide staining based flow cytometry (reference value: 78.71%)", "format": "functional"}, "[23]": {"target": "T1, Protein cereblon/Nuclear receptor coactivator 3", "experiment": "PROTAC activity at CRBN/SRC-3 in tamoxifen-resistant human LCC2 cells assessed as induction of SRC-3 degradation at 1 uM incubated for 9 hrs by immunoblot analysis", "format": "cell-based", "settings": "Tamoxifen-resistant LCC2 cell"}, "[24]": {"experiment": "Induction of apoptosis in tamoxifen-resistant human LCC2 cells assessed as necrotic cells at 10 uM incubated for 48 hrs by AnnexinV-FITC/PI staining based flow cytometry (reference value: 1.16%)", "format": "functional, Tamoxifen-resistant LCC2 cell"}, "[25]": {"test_system": "MCF7", "experiment": "Antiproliferative activity against human MCF7 cells harboring ER-alpha D538G mutant assessed as inhibition of cell growth by CCK8 assay", "format": "functional, cell-based"}, "[26]": {"target": "T1, Protein cereblon/Nuclear receptor coactivator 3", "experiment": "PROTAC activity at CRBN/SRC-3 in tamoxifen-resistant human LCC2 cells assessed as induction of SRC-3 degradation at 1 uM preincubated with proteasome inhibitor, bortezomib for 2 hrs followed by incubation with compound and measured after 36 hrs by immunoblot analysis", "format": "cell-based", "settings": "Tamoxifen-resistant LCC2 cell"}, "[27]": {"experiment": "Induction of cell cycle arrest in tamoxifen-resistant human LCC2 cells assessed as accumulation of cells at G2/M phase at 10 uM incubated for 48 hrs by propidium iodide staining based flow cytometry (reference value: 11.42%)", "format": "functional"}, "[28]": {"test_system": "MCF7", "experiment": "Induction of apoptosis in human MCF7 cells assessed as increase in late apoptotic cells at 1 to 20 uM incubated for 48 hrs by AnnexinV-FITC/PI staining based flow cytometry", "format": "functional, cell-based", "settings": "dose 1-20 µM"}, "[29]": {"experiment": "Induction of apoptosis in tamoxifen-resistant human LCC2 cells assessed as early apoptotic cells at 20 uM incubated for 48 hrs by AnnexinV-FITC/PI staining based flow cytometry (reference value: 5.92%)", "format": "functional, Tamoxifen-resistant LCC2 cell"}, "[30]": {"target": "T1, Protein cereblon/Nuclear receptor coactivator 3", "experiment": "PROTAC activity at CRBN/SRC-3 in tamoxifen-resistant human LCC2 cells assessed as induction of SRC-3 degradation at 1 uM preincubated with autophagy inhibitor, choloroquine for 2 hrs followed by incubation with compound and measured after 36 hrs by immunoblot analysis", "format": "cell-based", "settings": "Tamoxifen-resistant LCC2 cell"}, "[31]": {"experiment": "Toxicity against Balb/c mouse xenografted with tamoxifen-resistant human LCC2 cells assessed as effect on kidney pathological changes at 3 to 5 uM/Kg, ip administered once every 2 days for 23 days and measured on day 25 by Hematoxylin-Eosin based […] staining analysis", "format": "organism-based", "settings": "in vivo, 600 h, dose 3-5 µM/Kg, time 25 day"}, "[32]": {"experiment": "Hepatic clearance in human liver microsomes in presence of NADPH by LC-MS/MS analysis", "format": "ADME, Microsome"}, "[33]": {"test_system": "Tamoxifen-resistant LCC2 cell", "experiment": "Antitumor activity against tamoxifen-resistant human LCC2 cells xenografted in Balb/c mouse assessed as inhibition of tumor growth at 3 uM/Kg, ip administered once every 2 days for 23 days", "format": "functional, organism-based", "settings": "time 23.0 day"}}, "note": "Calls of active or inactive are those of the source. No cut-off for these calls is given here.", "data": [{"smiles": "C/C(=N\\Nc1nc2ccccc2n1C1CN(C2CCN(c3cccc4c3C(=O)N(C3CCC(=O)NC3=O)C4=O)CC2)C1)c1ccccn1", "note": "(stereo not drawn)", "values": [{"measurement": "Activity", "setting": "[1]", "value": "~35", "unit": "%"}, {"measurement": "Tmax", "setting": "[2]", "value": 0.33, "unit": "h"}, {"measurement": "IC50", "setting": "[3]", "value": 350, "unit": "nM"}, {"measurement": "Activity", "setting": "[4]", "value": 11.58, "unit": "%"}, {"measurement": "Activity", "setting": "[5]", "value": 24.23, "unit": "%"}, {"measurement": "Activity", "setting": "[6]", "value": "Active"}, {"measurement": "Activity", "setting": "[7]", "value": "Dose-dependent-effect"}, {"measurement": "IC50", "setting": "[8]", "value": 1430, "unit": "nM"}, {"measurement": "viability at 5 µM", "setting": "[9]", "value": 54.6, "unit": "%"}, {"measurement": "AUC(0-t)", "setting": "[10]", "value": 47.1, "unit": "ng·h/mL"}, {"measurement": "Activity", "setting": "[11]", "value": "Non-toxic"}, {"measurement": "Activity", "setting": "[12]", "value": "Active"}, {"measurement": "AUC(0-inf)", "setting": "[13]", "value": 55.2, "unit": "ng·h/mL"}, {"measurement": "Activity", "setting": "[14]", "value": "Active"}, {"measurement": "log2FC", "setting": "[15]", "value": 0.25}, {"measurement": "Activity", "setting": "[16]", "value": 17.04, "unit": "%"}, {"measurement": "half-life", "setting": "[17]", "value": 4.49, "unit": "h"}, {"measurement": "Activity", "setting": "[18]", "value": "Active"}, {"measurement": "Activity", "setting": "[19]", "value": "Dose-dependent-effect"}, {"measurement": "Activity", "setting": "[20]", "value": "Active"}, {"measurement": "clearance", "setting": "[21]", "value": 96.8, "unit": "mL/min/kg"}, {"measurement": "Activity", "setting": "[22]", "value": 81.41, "unit": "%"}, {"measurement": "Activity", "setting": "[23]", "value": "Active"}, {"measurement": "Activity", "setting": "[24]", "value": 6.62, "unit": "%"}, {"measurement": "IC50", "setting": "[25]", "value": 150, "unit": "nM"}, {"measurement": "Activity", "setting": "[26]", "value": "inactive"}, {"measurement": "Activity", "setting": "[27]", "value": 3.83, "unit": "%"}, {"measurement": "Activity", "setting": "[28]", "value": "Active"}, {"measurement": "Activity", "setting": "[29]", "value": 31.96, "unit": "%"}, {"measurement": "Activity", "setting": "[30]", "value": "Active"}, {"measurement": "Activity", "setting": "[31]", "value": "Non-toxic"}, {"measurement": "CLhep predicted", "setting": "[32]", "value": 18.7, "unit": "mL/min/kg"}, {"measurement": "Activity", "setting": "[33]", "value": "Active"}]}]}
